Test results as given in article PMC3425516 (PLoS ONE, 2012).

Columns and labels:
Assay in all cases: NCI-60 cell lines screening
Assay type in all cases: cell-based, human
[1] = system: 786-0; conditions: 786-0, Renal Cancer panel
Procedure: (§1) The NCI-60 cancer cell lines screening was conducted by the NCI’s Developmental Therapeutics Program (DTP; http://www.dtp.nci.nih.gov/branches/btb/ivclsp.html).

[2] = system: CCRF-CEM; conditions: Leukemia panel
Procedure: as §1

[3] = system: DU-145; conditions: DU-145, Prostate Cancer panel
Procedure: as §1

[4] = system: HCC-2998; conditions: HCC-2998, Colon Cancer panel
Procedure: as §1

[5] = system: HCT-116; conditions: HCT-116, Colon Cancer panel
Procedure: as §1

[6] = system: HOP-62; conditions: HOP-62, Non-Small Cell Lung Cancer panel
Procedure: as §1

[7] = system: HOP-92; conditions: HOP-92, Non-Small Cell Lung Cancer panel
Procedure: as §1

[8] = system: HS 578T
Procedure: as §1

[9] = system: HT29; conditions: HT29, Colon Cancer panel
Procedure: as §1

[10] = system: KM12; conditions: KM12, Colon Cancer panel
Procedure: as §1

[11] = system: M14; conditions: M14, Melanoma panel
Procedure: as §1

[12] = system: MAD-MB-231/ATCC; conditions: Breast Cancer panel
Procedure: as §1

[13] = system: MDA-MB-435; conditions: MDA-MB-435, Melanoma panel
Procedure: as §1

[14] = system: MDA-MB-468; conditions: MDA-MB-468, Breast Cancer panel
Procedure: as §1

[15] = system: MOLT-4; conditions: MOLT-4, Leukemia panel
Procedure: as §1

[16] = system: NCI-H23; conditions: NCI-H23, Non-Small Cell Lung Cancer panel
Procedure: as §1

[17] = system: NCI-H322M; conditions: Non-Small Cell Lung Cancer panel
Procedure: as §1

[18] = system: NCI-H522; conditions: NCI-H522, Non-Small Cell Lung Cancer panel
Procedure: as §1

[19] = system: NCI/ADR-RES; conditions: Ovarian Cancer panel
Procedure: as §1

[20] = system: OVCAR-4; conditions: OVCAR-4, Ovarian Cancer panel
Procedure: as §1

[21] = system: OVCAR-8; conditions: OVCAR-8, Ovarian Cancer panel
Procedure: as §1

[22] = system: RXF 393; conditions: RXF 393, Renal Cancer panel
Procedure: as §1

[23] = system: SF-295; conditions: SF-295, CNS Cancer panel
Procedure: as §1

[24] = system: SN12C; conditions: Renal Cancer panel
Procedure: as §1

[25] = system: SR; conditions: Leukemia panel
Procedure: as §1

[26] = system: SW-620; conditions: SW-620, Colon Cancer panel
Procedure: as §1

[27] = system: TK-10; conditions: TK-10, Renal Cancer panel
Procedure: as §1

[28] = system: UACC-62; conditions: UACC-62, Melanoma panel
Procedure: as §1

[29] = system: UO-31; conditions: UO-31, Renal Cancer panel
Procedure: as §1

[30] = Homo sapiens, read-out: LC50 (the source's name)

O=C(C=Cc1ccc2c(c1)CCN2S(=O)(=O)c1ccccc1)NO [MPT0E028, 3-(1-benzenesulfonyl-2,3-dihydro-1H-indol-5-yl)-N-hydroxy-acrylamide]
TGI [1]: 1330 nM | GI50 ([1]; Homo sapiens): 300 nM | CC50 [1, 30]: 4020 nM | GI50 ([2]; Homo sapiens): 165 nM | CC50 [2, 30]: > 100000 nM | TGI [2]: >100000 nM | TGI [3]: 1920 nM | GI50 ([3]; Homo sapiens): 179 nM | CC50 [3, 30]: > 100000 nM | TGI [4]: 522 nM | GI50 ([4]; Homo sapiens): 194 nM | CC50 [4, 30]: 2060 nM | TGI [5]: 204 nM | GI50 ([5]; Homo sapiens): 56.3 nM | CC50 [5, 30]: 566 nM | TGI [6]: 1060 nM | GI50 ([6]; Homo sapiens): 187 nM | CC50 [6, 30]: 19200 nM | TGI [7]: 814 nM | GI50 ([7]; Homo sapiens): 210 nM | CC50 [7, 30]: 18000 nM | TGI ([8]; HS 578T, Breast Cancer panel): 17900 nM | GI50 ([8]; Homo sapiens, Hs-578T): 253 nM | CC50 ([8]; Homo sapiens, Hs-578T, read-out: LC50 (the source's name)): > 100000 nM | TGI [9]: 716 nM | GI50 ([9]; Homo sapiens, HT-29): 118 nM | CC50 ([9]; Homo sapiens, HT-29, read-out: LC50 (the source's name)): 68100 nM | GI50 ([10]; Homo sapiens): 286 nM | CC50 [10, 30]: 5780 nM | TGI [10]: 1490 nM | GI50 ([11]; Homo sapiens): 179 nM | CC50 [11, 30]: 6450 nM | TGI [11]: 1110 nM | TGI [12]: 822 nM | GI50 ([12]; Homo sapiens): 241 nM | CC50 [12, 30]: 20400 nM | GI50 ([13]; Homo sapiens): 146 nM | CC50 [13, 30]: 11300 nM | TGI [13]: 706 nM | GI50 ([14]; Homo sapiens): 196 nM | CC50 [14, 30]: 6310 nM | TGI [14]: 1150 nM | GI50 ([15]; Homo sapiens): 317 nM | CC50 [15, 30]: > 100000 nM | TGI [15]: >100000 nM | GI50 ([16]; Homo sapiens): 188 nM | CC50 [16, 30]: 3840 nM | TGI [16]: 922 nM | GI50 ([17]; Homo sapiens): 186 nM | CC50 [17, 30]: > 100000 nM | TGI [17]: 11400 nM | GI50 ([18]; Homo sapiens): 167 nM | CC50 [18, 30]: 13000 nM | TGI [18]: 845 nM | GI50 ([19]; Homo sapiens): 38.5 nM | CC50 [19, 30]: > 100000 nM | TGI [19]: 239 nM | GI50 ([20]; Homo sapiens): 509 nM | CC50 [20, 30]: > 100000 nM | TGI [20]: 31800 nM | GI50 ([21]; Homo sapiens): 121 nM | CC50 [21, 30]: > 100000 nM | TGI [21]: 1750 nM | GI50 ([22]; Homo sapiens): 112 nM | CC50 [22, 30]: 998 nM | TGI [22]: 334 nM | GI50 ([23]; Homo sapiens): 60.3 nM | CC50 [23, 30]: 2430 nM | TGI [23]: 340 nM | GI50 ([24]; Homo sapiens): 458 nM | CC50 [24, 30]: > 100000 nM | TGI [24]: 10200 nM | GI50 ([25]; Homo sapiens): 60.1 nM | CC50 [25, 30]: > 100000 nM | TGI [25]: >100000 nM | GI50 ([26]; Homo sapiens): 147 nM | CC50 [26, 30]: > 100000 nM | TGI [26]: 11200 nM | GI50 ([27]; Homo sapiens): 103 nM | CC50 [27, 30]: 33600 nM | TGI [27]: 660 nM | GI50 ([28]; Homo sapiens): 71.6 nM | TGI [28]: 339 nM | GI50 ([29]; Homo sapiens): 169 nM | CC50 [29, 30]: 5630 nM | TGI [29]: 1460 nM
